Assay results as given in ChEMBL document CHEMBL4000166, “Stachybotrysin, an Osteoclast Differentiation Inhibitor from the Marine-Derived Fungus Stachybotrys sp. KCB13F013” (J Nat Prod, 2016).
Activity calls are given as the source filed them. The calls are words filed in the database; no cut-off is given here.

How the values were obtained:
[1] = species on record: Mus musculus; assay: Inhibition of M-CSF/RANKL-induced ERK phosphorylation in mouse BMMC at 5 ug/ml preincubated with M-CSF for 6 mins followed by RANKL addition measured after 5 mins by Western blot method
[2] = species on record: Mus musculus; assay: Inhibition of M-CSF/RANKL-induced JNK phosphorylation in mouse BMMC at 5 ug/ml preincubated with M-CSF for 6 mins followed by RANKL addition measured after 5 mins by Western blot method
[3] = target: T1, NF-kappa-B inhibitor alpha (Mus musculus) (UniProt Q9Z1E3); assay: Effect on IkappaBalpha phosphorylation in mouse BMMC at 5 ug/ml preincubated with M-CSF for 6 mins followed by RANKL addition measured after 5 to 30 mins by Western blot method
T1 sequence (whole entry): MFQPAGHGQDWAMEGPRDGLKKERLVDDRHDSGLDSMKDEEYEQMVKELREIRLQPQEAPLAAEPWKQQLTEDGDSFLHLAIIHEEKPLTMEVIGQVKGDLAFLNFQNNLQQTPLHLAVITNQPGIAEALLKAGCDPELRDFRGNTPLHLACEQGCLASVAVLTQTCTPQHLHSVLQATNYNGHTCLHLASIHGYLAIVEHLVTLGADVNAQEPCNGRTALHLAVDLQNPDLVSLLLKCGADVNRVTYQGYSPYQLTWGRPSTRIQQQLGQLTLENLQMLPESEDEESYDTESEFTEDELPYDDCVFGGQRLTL

[4] = test system: BMMC; assay: Inhibition of M-CSF/RANKL-induced osteoclast differentiation in mouse BMMC after 4 days by TRAP staining method; format: functional, cell-based
[5] = target: MAP kinase p38 (Mus musculus) (UniProt P47811+O08911+Q9WUI1+Q9Z1B7); assay: Inhibition of M-CSF/RANKL-induced p38 phosphorylation in mouse BMMC at 5 ug/ml preincubated with M-CSF for 6 mins followed by RANKL addition measured after 5 mins by Western blot method
[6] = test system: BMMC; assay: Inhibition of M-CSF/RANKL-induced osteoclast differentiation in mouse BMMC at 5 to 10 ug/ml after 4 days by TRAP staining method; format: functional, cell-based

Row | inhibition [1] | inhibition [2] | Activity [3] | inhibition [5] | Compound | inhibition [4] | inhibition [6]
1 | Active | Active | inactive | Active | CC(=O)/C=C/c1c(CO)cc(O)c2c1O[C@]1(C2)[C@H](C)CC[C@H]2C(C)(C)[C@H](O)CC[C@@]21C | Dose-dependent effect | –
2 | – | – | – | – | C[C@@H]1CC[C@H]2C(C)(C)[C@H](O)CC[C@]2(C)[C@@]12Cc1c(O)cc3c(c1O2)C(=O)OC3 | – | inactive
